Reference: patent publication US8367709B2, “Dipeptide analogs as coagulation factor inhibitors” (priority 2007, dated 2013)
pKi: −log10 of the molar value. Counter-ions that a name gives are not always drawn. Like-named read-outs stand apart in the source and are kept apart here.

Target: T1, purified human Factor XIa (Homo sapiens, UniProt P03951)
T1 construct: purchased Haematologic Technologies
Test: Factor XIa assay (chromogenic substrate S-2366 hydrolysis, Ki)
Format: biochemical
Procedure: The effectiveness of compounds of the present invention as inhibitors of the coagulation factors XIa, VIIa, IXa, Xa, XIIa, plasma kallikrein or thrombin, can be determined using a relevant purified serine protease, respectively, and an appropriate synthetic substrate. The rate of hydrolysis of the chromogenic or fluorogenic substrate by the relevant serine protease was measured both in the absence and presence of compounds of the present invention. […] A decrease in the rate of absorbance or fluorescence change in the presence of inhibitor is indicative of enzyme inhibition. Such methods are known to one skilled in the art. The results of this assay are expressed as the inhibitory constant, Ki.
Values of Ki were determined by allowing the protease to react with the substrate in the presence of the inhibitor. Reactions were allowed to go for periods of 20-180 minutes (depending on the protease) and the velocities (rate of absorbance or fluorescence change versus time) were measured. The following relationships were used to calculate Ki values:
vs/vo=A+((B−A)/1+((IC50/(I)^n))) and […]

[1] = purified human Factor XIa 75-200 pM, substrate S-2366, 50 mM HEPES pH 7.4, read-out: Factor XIa Ki

T1 sequence (P03951 19-387): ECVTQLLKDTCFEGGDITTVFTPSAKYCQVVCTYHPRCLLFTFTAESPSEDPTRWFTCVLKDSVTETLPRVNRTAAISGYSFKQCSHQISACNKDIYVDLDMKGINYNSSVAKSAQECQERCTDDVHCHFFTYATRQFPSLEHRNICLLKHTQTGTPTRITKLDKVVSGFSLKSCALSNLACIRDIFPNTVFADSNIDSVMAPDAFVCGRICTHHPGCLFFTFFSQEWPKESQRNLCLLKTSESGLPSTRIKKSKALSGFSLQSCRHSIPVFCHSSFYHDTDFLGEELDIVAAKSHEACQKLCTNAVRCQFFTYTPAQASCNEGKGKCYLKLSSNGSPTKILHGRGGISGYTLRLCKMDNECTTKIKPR
T1 sequence (P03951 388-625): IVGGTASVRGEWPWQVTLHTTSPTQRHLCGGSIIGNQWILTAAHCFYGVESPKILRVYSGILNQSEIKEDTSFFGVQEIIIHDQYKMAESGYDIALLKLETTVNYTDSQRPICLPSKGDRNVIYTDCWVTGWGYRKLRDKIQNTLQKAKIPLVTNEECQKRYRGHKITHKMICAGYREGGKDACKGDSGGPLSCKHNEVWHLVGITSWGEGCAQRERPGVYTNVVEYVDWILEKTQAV

Compound	pKi	pKi [1]
O=C(N[C@@H](Cc1ccccc1)C(=O)NCCc1cc(Cl)ccc1-n1cnnn1)c1n[nH]c2ccccc12 [Example 149, (S)—N-(1-(5-chloro-2-(1H-tetrazol-1-yl)phenethylamino)-1-oxo-3-phenylpropan-2-yl)-1H-indazole-3-carboxamide]	5.19	–
COP(=O)(CCOC(=O)Nc1ccc(NC(=O)[C@H](Cc2ccccc2)NC(=O)/C=C/c2cc(Cl)ccc2-n2cnnn2)cc1)OC [Example 171, (S,E)-2-(dimethoxyphosphoryl)ethyl 4-(2-(3-(5-chloro-2-(1H-tetrazol-1-yl)phenyl)-acrylamido)-3-phenylpropanamido)phenylcarbamate]	–	7.42
O=C1CNC(=O)c2ccc(C(=O)N[C@@H](Cc3ccccc3)C(=O)NCCc3cc(Cl)ccc3-n3cnnn3)cc2N1 [Example 187, (S)—N-(1-(5-chloro-2-(1H-tetrazol-1-yl)phenethylamino)-1-oxo-3-phenylpropan-2-yl)-2,5-dioxo-2,3,4,5-tetrahydro-1H-benzo[e][1,4]diazepine-8-carboxamide]	5.03	–
O=C(/C=C/c1cc(Cl)ccc1-n1cnnn1)N[C@@H](Cc1ccccc1)C(=O)N[C@@H]1CCCCNC1=O [Example 196]	5.08	–
Nc1nc2ccc(C(=O)N[C@@H](Cc3ccccc3)C(=O)NCCc3cc(Cl)ccc3-n3cnnn3)cc2s1 [Example 204, (S)-2-amino-N-(1-(5-chloro-2-(1H-tetrazol-1-yl)phenethylamino)-1-oxo-3-phenylpropan-2-yl)benzo[d]thiazole-6-carboxamide, TFA salt]	7.56	–
O=C1CSc2cc(C(=O)N[C@@H](Cc3ccccc3)C(=O)NCCc3cc(Cl)ccc3-n3cnnn3)ccc2N1 [Example 206, (S)—N-(1-(5-chloro-2-(1H-tetrazol-1-yl)phenethylamino)-1-oxo-3-phenylpropan-2-yl)-3-oxo-3,4-dihydro-2H-benzo[b][1,4]thiazine-7-carboxamide]	7.71	–
COC(=O)c1ccc(NC(=O)[C@H](Cc2cc(C)n(C)n2)NC(=O)/C=C/c2c(-n3cnnn3)ccc(Cl)c2F)nc1 [Example 216, (S,E)-methyl 6-(2-(3-(3-chloro-2-fluoro-6-(1H-tetrazol-1-yl)phenyl)acrylamido)-3-(1,5-dimethyl-1H-pyrazol-3-yl)propanamido)nicotinate, TFA salt]	7.18	–
CS(=O)(=O)CC[C@H](NC(=O)/C=C/c1cc(Cl)ccc1-n1cnnn1)C(=O)Nc1ccc(C(=O)O)cc1 [Example 231, (S,E)-4-(2-(3-(5-chloro-2-(1H-tetrazol-1-yl)phenyl)acrylamido)-4-(methylsulfonyl)butanamido)benzoic acid]	7.35	–
O=C(/C=C/c1cc(Cl)ccc1-n1cnnn1)N[C@@H](Cc1c[nH]c2ccccc12)C(=O)Nc1ccc(C(=O)O)cc1 [Example 238, (S,E)-4-(2-(3-(5-chloro-2-(1H-tetrazol-1-yl)phenyl)acrylamido)-3-(1H-indol-3-yl)propanamido)benzoic acid, TFA salt]	–	8.33
O=C(/C=C/c1cc(Cl)ccc1-n1cnnn1)N[C@@H](Cc1cccs1)C(=O)Nc1ccc(C(=O)O)cc1 [Example 248, (S,E)-4-(2-(3-(5-chloro-2-(1H-tetrazol-1-yl)phenyl)acrylamido)-3-(thiophen-2-yl)propanamido)benzoic acid]	–	8.62
O=C(/C=C/c1cc(Cl)ccc1-n1cnnn1)N[C@@H](Cc1cccnc1)C(=O)Nc1ccc(C(=O)O)cc1 [Example 249, (S,E)-4-(2-(3-(5-chloro-2-(1H-tetrazol-1-yl)phenyl)acrylamido)-3-(pyridin-3-yl)propanamido)benzoic acid]	–	8.22
O=C(/C=C/c1cc(Cl)ccc1-n1cnnn1)NC(Cc1cnc2ccccc2n1)C(=O)Nc1ccc(C(=O)O)cc1 (stereo not drawn) [Example 251, (E)-4-(2-(3-(5-chloro-2-(1H-tetrazol-1-yl)phenyl)acrylamido)-3-(quinoxalin-2-yl)propanamido)benzoic acid]	7.79	–
O=C(/C=C/c1cc(Cl)ccc1-n1cnnn1)N[C@@H](CC(=O)NCc1cnccn1)C(=O)Nc1ccc(C(=O)O)cc1 [Example 252, (S,E)-4-(2-(3-(5-chloro-2-(1H-tetrazol-1-yl)phenyl)acrylamido)-4-oxo-4-(pyrazin-2-ylmethylamino)butanamido)benzoic acid]	7.79	–
N/C(=N/[N+](=O)[O-])NCCC[C@H](NC(=O)/C=C/c1cc(Cl)ccc1-n1cnnn1)C(=O)Nc1ccc(C(=O)O)cc1 [Example 253, 4-((S)-2-((E)-3-(5-chloro-2-(1H-tetrazol-1-yl)phenyl)acrylamido)-5-((Z)-2-nitroguanidino)pentanamido)benzoic acid]	7.71	–
COC[C@H](NC(=O)/C=C/c1cc(Cl)ccc1-n1cnnn1)C(=O)Nc1ccc(C(=O)O)cc1 [Example 254, (S,E)-4-(2-(3-(5-chloro-2-(1H-tetrazol-1-yl)phenyl)acrylamido)-3-methoxypropanamido)benzoic acid]	5.44	–
O=C(/C=C/c1cc(Cl)ccc1-n1cnnn1)N[C@H](C(=O)Nc1ccc(C(=O)O)cc1)[C@@H]1CCCNC1 [Example 262, 4-((S)-2-((E)-3-(5-chloro-2-(1H-tetrazol-1-yl)phenyl)acrylamido)-2-((R)-piperidin-3-yl)acetamido)benzoic acid]	5.63	–
CC(C)(C)SC[C@H](NC(=O)/C=C/c1cc(Cl)ccc1-n1cnnn1)C(=O)Nc1ccc(C(=O)O)cc1 [Example 282, (R,E)-4-(3-(tert-butylthio)-2-(3-(5-chloro-2-(1H-tetrazol-1-yl)phenyl)acrylamido)propanamido)benzoic acid]	7.49	–
O=C(/C=C/c1cc(Cl)ccc1-n1cnnn1)N[C@@H](CC(=O)NCCN1CCOCC1)C(=O)Nc1ccc(C(=O)O)cc1 [Example 286, (S,E)-4-(2-(3-(5-chloro-2-(1H-tetrazol-1-yl)phenyl)acrylamido)-4-(2-morpholinoethylamino)-4-oxobutanamido)benzoic acid, Trifluoroacetic acid salt]	6.32	–
O=C(N[C@@H](Cc1ccccc1)C(=O)NCCc1cc(Cl)ccc1-n1cnnn1)c1cn2cccnc2n1 [Example 295]	5.03	–
O=C(/C=C/c1cc(Cl)ccc1-n1cnnn1)N[C@@H](CC1CCN(C(=O)c2ccccc2)C1)C(=O)Nc1ccc(C(=O)O)cc1 (stereo partly drawn) [Example 307, 4-((2S)-3-(1-benzoylpyrrolidin-3-yl)-2-((E)-3-(5-chloro-2-(1H-tetrazol-1-yl)phenyl)acrylamido)propanamido)benzoic acid]	7.91	–
(4-{(S)-2-[(E)-3-(5-chloro-2-tetrazol-1-yl-phenyl)-acryloylamino]-3-phenyl-propionylamino}-cyclohexyl)-carbamic acid methyl ester [Example 11]	–	5.35
